The subject of assay [1] is OVCAR3 cells. The assay is described as follows: Cell proliferation activity test, OVCAR3 (CyQUANT Direct). It counts as cell-based. Conditions: Homo sapiens, OVCAR-3, 72 h, 3 days incubation, CyQUANT fluorescence detection, read-out: OVCAR-3 Cell Viability_IC50_nM. In a few lines:
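OVCAR3 cells seeded overnight, then exposed to compounds at 0-10 μM final (0.20% DMSO) for 3 days at 37° C. Cell number read by CyQUANT Direct fluorescence after 60 min at 37° C.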

For assay [2], the system named is HT29 cells. Briefly: CyQuant cell proliferation activity test, HT29. It counts as cell-based. The conditions noted are these: Homo sapiens, HT-29, 72 h, HT29 2000 cells per well, 3 days incubation, initial concentration 3000 nM, IC50 by XLFIT, read-out: HT-29 Cell Viability_IC50_nM. The procedure, abridged:
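HT29 cells (2000/well, RPMI-1640 with 10% FBS) were plated overnight, then exposed to compound for 3 days at 37 °C, 5% CO2. Dosing was 9 concentrations, 3-fold dilutions from 3000 nM, in 0.20% DMSO. Proliferation was read with CyQuant reagent after 1 h, and IC50 derived from the curves.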

Assay [3] addresses T1, Human KIF18A (amino acid sequence 1-417) (Homo sapiens, UniProt Q8NI77).
T1 construct: purchased Viva Biotech (Shanghai) Ltd
The assay is described as follows: Enzyme activity detection experiment (ADP-Glo, KIF18A with tubulin and ATP). It counts as biochemical. The conditions noted are these: tubulin 60 μg/mL, ATP 25 μM, KIF18A protein 2.5 nM, 120 minutes at ambient temperature, ADP-Glo chemiluminescence. The procedure, abridged: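 KIF18A (2.5 nM) was incubated with tubulin (60 μg/mL as added), ATP (25 μM) and serially diluted compound for 120 min at ambient temperature. ADP formed was detected by ADP-Glo: reagent for 30 min, then detection reagent for 30 min in the dark, with chemiluminescence read-out.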
(ADP-Glo turns the ADP formed in a reaction into a luminescent signal.)

T1 sequence (Q8NI77 1-417): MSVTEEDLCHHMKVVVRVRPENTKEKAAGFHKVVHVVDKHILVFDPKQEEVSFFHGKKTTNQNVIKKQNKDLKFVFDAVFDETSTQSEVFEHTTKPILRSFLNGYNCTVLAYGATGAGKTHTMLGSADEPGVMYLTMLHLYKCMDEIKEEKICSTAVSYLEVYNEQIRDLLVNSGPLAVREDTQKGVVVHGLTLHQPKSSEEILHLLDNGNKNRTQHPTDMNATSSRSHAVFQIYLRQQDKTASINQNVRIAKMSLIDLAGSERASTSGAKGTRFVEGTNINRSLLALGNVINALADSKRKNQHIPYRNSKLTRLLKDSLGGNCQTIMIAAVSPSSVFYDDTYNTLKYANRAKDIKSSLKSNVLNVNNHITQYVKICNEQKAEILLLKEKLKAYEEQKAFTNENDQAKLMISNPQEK
T1 sequence (Q2XVP4 whole entry partner): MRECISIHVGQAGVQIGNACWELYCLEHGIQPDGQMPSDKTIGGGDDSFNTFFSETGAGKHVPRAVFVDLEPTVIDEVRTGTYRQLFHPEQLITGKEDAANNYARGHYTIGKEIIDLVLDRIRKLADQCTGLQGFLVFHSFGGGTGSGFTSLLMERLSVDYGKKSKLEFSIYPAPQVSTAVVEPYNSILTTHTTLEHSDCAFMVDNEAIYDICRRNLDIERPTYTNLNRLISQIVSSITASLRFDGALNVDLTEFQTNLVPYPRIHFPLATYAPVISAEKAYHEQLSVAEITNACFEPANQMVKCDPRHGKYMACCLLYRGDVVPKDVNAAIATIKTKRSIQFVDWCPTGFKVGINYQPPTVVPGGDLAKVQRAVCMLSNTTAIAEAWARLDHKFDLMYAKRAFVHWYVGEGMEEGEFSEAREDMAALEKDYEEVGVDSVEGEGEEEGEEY
T1 sequence (P02554 whole entry partner): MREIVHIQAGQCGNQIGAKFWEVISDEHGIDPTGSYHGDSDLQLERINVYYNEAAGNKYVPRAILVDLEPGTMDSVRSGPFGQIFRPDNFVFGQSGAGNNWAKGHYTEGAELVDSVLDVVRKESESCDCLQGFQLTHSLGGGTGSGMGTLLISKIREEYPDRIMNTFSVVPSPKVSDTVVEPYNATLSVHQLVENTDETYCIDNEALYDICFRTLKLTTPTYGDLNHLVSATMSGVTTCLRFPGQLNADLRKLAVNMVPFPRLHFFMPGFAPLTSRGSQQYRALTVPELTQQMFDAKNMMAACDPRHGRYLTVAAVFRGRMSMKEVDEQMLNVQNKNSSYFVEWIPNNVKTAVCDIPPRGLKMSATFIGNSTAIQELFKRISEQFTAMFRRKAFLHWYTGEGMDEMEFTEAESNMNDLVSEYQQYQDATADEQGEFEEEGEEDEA

`Cc1cc(-c2cn(-c3ccc(NS(=O)(=O)[C@@H](C)CO)cc3N3CCC4(CC3)CC4)nn2)nc(N2CCC(F)(F)CC2)n1` [Example 84, (2S)—N-(3-{6-azaspiro[2.5]octan-6-yl}-4-{4-[2-(4,4-difluoropiperidin-1-yl)-6-methylpyrimidin-4-yl]-1H-1,2,3-triazol-1-yl}phenyl)-1-hydroxypropane-2-sulfonamide]: the IC50 in assay [1] was 0.021 µM; in assay [2], 0.025 µM; in assay [3], 0.125 µM.
Regarding `Cc1cc(-c2cn(-c3ccc(NS(=O)(=O)C4(CO)CC4)cc3N3CCC4(CC3)CC4)nn2)nc(N2CCC(F)(F)CC2)n1` [Example 85, N-(3-{6-azaspiro[2.5]octan-6-yl}-4-{4-[2-(4,4-difluoropiperidin-1-yl)-6-methylpyrimidin-4-yl]-1H-1,2,3-triazol-1-yl}phenyl)-1-(hydroxymethyl)cyclopropane-1-sulfonamide], the IC50 in assay [1] turned out to be 0.025 µM; in assay [2], 0.034 µM; in assay [3], 0.188 µM.
As to `Cc1cc(-c2cn(-c3ccc(NS(=O)(=O)C(C)(C)CO)cc3N3CCC4(CC3)CC4)nn2)nc(N2CCC(F)(F)CC2)n1` [Example 86, N-(3-{6-azaspiro[2.5]octan-6-yl}-4-{4-[2-(4,4-difluoropiperidin-1-yl)-6-methylpyrimidin-4-yl]-1H-1,2,3-triazol-1-yl}phenyl)-1-hydroxy-2-methylpropane-2-sulfonamide], the IC50 in assay [1] is 0.022 µM; in assay [2] it was 0.021 µM; in assay [3], 0.162 µM.
Turning to `Cc1cc(-c2cn(-c3ccc(NS(=O)(=O)CCO)cc3N3CCC(=C(F)F)CC3)nn2)nc(N2CCC(F)(F)CC2)n1` [Example 88, N-{3-[4-(difluoromethylidene)piperidin-1-yl]-4-{4-[2-(4,4-difluoropiperidin-1-yl)-6-methylpyrimidin-4-yl]-1H-1,2,3-triazol-1-yl}phenyl}-2-hydroxyethane-1-sulfonamide], the figures for the IC50 in assay [1], in assay [2] and in assay [3] were 0.029 µM, 0.052 µM and 0.118 µM, respectively.
Regarding `Cc1cc(-n2cc(-c3ccc(NS(=O)(=O)CCO)cc3N3CCC4(CC3)CC4)nn2)nc(N2CCC(F)(F)CC2)n1` [Example 89, N-(4-(1-(2-(4,4-difluoropiperidin-1-yl)-6-methylpyrimidin-4-yl)-1H-1,2,3-triazol-4-yl)-3-(6-azaspiro[2.5]octan-6-yl)phenyl)-2-hydroxyethanesulfonamide], the IC50 is 0.036 µM in assay [1], 0.04 µM in assay [2] and 0.061 µM in assay [3].
On to `COc1cc(-n2cc(-c3ccc(NS(=O)(=O)CCO)cc3N3CCC4(CC3)CC4)nn2)nc(N2CCC(F)(F)CC2)n1` [Example 90, N-(3-{6-azaspiro[2.5]octan-6-yl}-4-{1-[2-(4,4-difluoropiperidin-1-yl)-6-methoxypyrimidin-4-yl]-1H-1,2,3-triazol-4-yl}phenyl)-2-hydroxyethane-1-sulfonamide], for which the values for the IC50 in assay [1], in assay [2] and in assay [3] were 0.044 µM, 0.062 µM and 0.016 µM, respectively.
With `Cc1cc(-n2cc(-c3ccc(NS(=O)(=O)CCO)cc3N3CCC4(CC3)CC4)nn2)cc(N2CCC(F)(F)CC2)n1` [Example 91], the IC50 turned out to be 0.087 µM in assay [1], 0.126 µM in assay [2] and 0.278 µM in assay [3].
The corresponding values for `Cc1cc(-n2cc(-c3ccc(NS(=O)(=O)[C@H](C)CO)cc3N3CCC4(CC3)CC4)nn2)nc(N2CCC(F)(F)CC2)n1` [Example 92, (2R)—N-(3-{6-azaspiro[2.5]octan-6-yl}-4-{1-[2-(4,4-difluoropiperidin-1-yl)-6-methylpyrimidin-4-yl]-1H-1,2,3-triazol-4-yl}phenyl)-1-hydroxypropane-2-sulfonamide] are 0.093 µM, 0.05 µM and 0.232 µM.
With `Cc1cc(-n2cc(-c3ccc(NS(=O)(=O)[C@@H](C)CO)cc3N3CCC4(CC3)CC4)nn2)nc(N2CCC(F)(F)CC2)n1` [Example 93, (2S)—N-(3-{6-azaspiro[2.5]octan-6-yl}-4-{1-[2-(4,4-difluoropiperidin-1-yl)-6-methylpyrimidin-4-yl]-1H-1,2,3-triazol-4-yl}phenyl)-1-hydroxypropane-2-sulfonamide], the IC50 in assay [1] came to 0.085 µM; in assay [2], 0.083 µM; in assay [3], 0.315 µM.
`O=S(=O)(CCO)Nc1ccc(-c2cn(-c3cc(N4CCC(F)(F)CC4)c4ncccc4c3)nn2)c(N2CCC3(CC2)CC3)c1` [Example 94, N-(4-(1-(8-(4,4-difluoropiperidin-1-yl)quinolin-6-yl)-1H-1,2,3-triazol-4-yl)-3-(6-azaspiro[2.5]octan-6-yl)phenyl)-2-hydroxyethane-1-sulfonamide]: the IC50 in assay [1] stood at 0.092 µM; in assay [2] it was 0.057 µM; in assay [3], 0.227 µM.

The record behind these values is patent publication US20250304551A1 (SHANGHAI APEIRON THERAPEUTICS COMPANY LIMITED, priority 2022, published 2025).
